In ChEMBL document CHEMBL1126920, “Design and synthesis of an orally active macrocyclic neutral endopeptidase 24.11 inhibitor” (J Med Chem, 1993) one finds IC50 data, which are given here for twelve compounds.

This assay has as its target T1, Neprilysin (Rattus norvegicus, UniProt P07861).
T1 sequence (P07861 whole entry): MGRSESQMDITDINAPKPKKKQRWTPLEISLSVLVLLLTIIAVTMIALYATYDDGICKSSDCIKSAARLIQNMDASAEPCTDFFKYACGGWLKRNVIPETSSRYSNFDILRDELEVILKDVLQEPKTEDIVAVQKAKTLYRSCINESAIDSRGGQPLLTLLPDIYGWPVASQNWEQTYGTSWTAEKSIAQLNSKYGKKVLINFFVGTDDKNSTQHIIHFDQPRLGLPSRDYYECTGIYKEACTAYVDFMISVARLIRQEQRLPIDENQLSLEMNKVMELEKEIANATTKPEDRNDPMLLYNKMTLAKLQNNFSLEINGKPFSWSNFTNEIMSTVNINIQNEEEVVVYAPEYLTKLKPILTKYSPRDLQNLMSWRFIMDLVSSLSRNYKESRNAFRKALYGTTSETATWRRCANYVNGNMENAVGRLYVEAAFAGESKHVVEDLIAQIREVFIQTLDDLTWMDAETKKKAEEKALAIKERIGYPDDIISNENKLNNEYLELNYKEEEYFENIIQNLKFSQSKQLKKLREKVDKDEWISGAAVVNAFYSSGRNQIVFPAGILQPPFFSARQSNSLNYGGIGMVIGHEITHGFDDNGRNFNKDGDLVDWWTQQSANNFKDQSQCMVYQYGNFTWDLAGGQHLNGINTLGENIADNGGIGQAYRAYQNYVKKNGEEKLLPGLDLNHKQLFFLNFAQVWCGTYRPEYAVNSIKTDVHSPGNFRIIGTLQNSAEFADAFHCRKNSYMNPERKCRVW
Nature of the assay: Inhibition of NEP 24.11 from rat kidney. The class given is tissue-based.
Compound `O=C1NC(C(=O)Nc2ccccc2)CCCCCCC1CS` (configuration not stated) gave an IC50 of 551 nM.
The compound `O=C1NC(C(=O)N[C@H](CO)C(=O)O)CCCCCCC1CS` (some centres not stated) registered an IC50 of 11 nM.
As to `O=C1NC(C(=O)NCCOCCO)CCCCCCC1CS` (configuration not stated), the IC50 stood at 84 nM.
For the compound `CS(=O)(=O)CCCNC(=O)C1CCCCCCC(CS)C(=O)N1` (configuration not stated), the IC50 stood at 63 nM.
For the compound `O=C1NC(C(=O)N2CCC[C@H]2C(=O)O)CCCCCCC1CS` (some centres not stated), the IC50 is 2 nM.
`O=C1NC(C(=O)NCCCO)CCCCCCC1CS` (configuration not stated) yielded an IC50 of 209 nM. This IC50 is about 100-fold higher than that of the compound before.
For `O=C1NC(C(=O)Nc2cccnc2)CCCCCCC1CS` (configuration not stated), half-maximal inhibition (IC50) was put at 59 nM.
With `NCCCC[C@@H](NC(=O)C1CCCCCCC(CS)C(=O)N1)C(=O)O` (some centres not stated), the IC50 was 14 nM. Against the preceding compound, the IC50 is about 4.2-fold lower.
Next, `O=C1NC(C(=O)O)CCCCCCC1CS` (racemic): 4 nM; `O=C1NC(C(=O)O)CCCCCCC1CS` (single isomer, unassigned; (+)): 3 nM; `O=C1NC(C(=O)N2C[C@H](O)C[C@H]2C(=O)O)CCCCCCC1CS` (single isomer, unassigned; (-)): 0.8 nM.
For `O=C1NC(C(=O)O)CCCCCCC1CS` (single isomer, unassigned; (-)) the value was > 1000 nM.
